System: MOG35-55-induced experimental autoimmune encephalomyelitis (EAE) mouse model
Test: MOG35-55-induced EAE mouse model, clinical scoring and incidence
Format: in vivo, C57BL/6 mice
Conditions: for inhibition rate of AUC for clinical scoring: 14 days, vs vehicle control

CN(c1ncnc2[nH]ccc12)[C@@H]1CCc2cc(C#N)nn2C1 [Compound I]
inhibition rate of AUC for clinical scoring (3 mg/kg BID oral): 44% | inhibition rate of AUC for clinical scoring (10 mg/kg BID oral): 77% | inhibition rate of AUC for clinical scoring (20 mg/kg BID oral): 63% | inhibition rate of AUC for clinical scoring (20 mg/kg QD oral): 60% | EAE clinical scoring, Mean (G5, 3 mg/kg BID oral, day 0): 0.00 | incidence of EAE (G5, 3 mg/kg BID oral, day 0): 0% | EAE clinical scoring, Mean (G5, 3 mg/kg BID oral, day 2): 0.00 | incidence of EAE (G5, 3 mg/kg BID oral, day 2): 0% | EAE clinical scoring, Mean (G5, 3 mg/kg BID oral, day 4): 0.00 | incidence of EAE (G5, 3 mg/kg BID oral, day 4): 0% | EAE clinical scoring, Mean (G5, 3 mg/kg BID oral, day 7): 0.00 | incidence of EAE (G5, 3 mg/kg BID oral, day 7): 0% | EAE clinical scoring, Mean (G5, 3 mg/kg BID oral, day 9): 0.00 | incidence of EAE (G5, 3 mg/kg BID oral, day 9): 0% | EAE clinical scoring, Mean (G5, 3 mg/kg BID oral, day 11): 0.00 | incidence of EAE (G5, 3 mg/kg BID oral, day 11): 0% | EAE clinical scoring, Mean (G5, 3 mg/kg BID oral, day 12): 0.00 | incidence of EAE (G5, 3 mg/kg BID oral, day 12): 0% | EAE clinical scoring, Mean (G5, 3 mg/kg BID oral, day 13): 0.20 | incidence of EAE (G5, 3 mg/kg BID oral, day 13): 20% | EAE clinical scoring, Mean (G5, 3 mg/kg BID oral, day 14): 0.40 | incidence of EAE (G5, 3 mg/kg BID oral, day 14): 40% | EAE clinical scoring, Mean (G5, 3 mg/kg BID oral, day 15): 0.60 | incidence of EAE (G5, 3 mg/kg BID oral, day 15): 60% | EAE clinical scoring, Mean (G5, 3 mg/kg BID oral, day 16): 0.90 | incidence of EAE (G5, 3 mg/kg BID oral, day 16): 70% | EAE clinical scoring, Mean (G5, 3 mg/kg BID oral, day 17): 1.50 | incidence of EAE (G5, 3 mg/kg BID oral, day 17): 80% | EAE clinical scoring, Mean (G5, 3 mg/kg BID oral, day 18): 1.90 | incidence of EAE (G5, 3 mg/kg BID oral, day 18): 90% | EAE clinical scoring, Mean (G5, 3 mg/kg BID oral, day 19): 1.90 | incidence of EAE (G5, 3 mg/kg BID oral, day 19): 100% | EAE clinical scoring, Mean (G5, 3 mg/kg BID oral, day 20): 1.30 | incidence of EAE (G5, 3 mg/kg BID oral, day 20): 70% | EAE clinical scoring, Mean (G5, 3 mg/kg BID oral, day 21): 1.10 | incidence of EAE (G5, 3 mg/kg BID oral, day 21): 60% | EAE clinical scoring, Mean (G5, 3 mg/kg BID oral, day 22): 1.10 | incidence of EAE (G5, 3 mg/kg BID oral, day 22): 60% | EAE clinical scoring, Mean (G5, 3 mg/kg BID oral, day 23): 1.00 | incidence of EAE (G5, 3 mg/kg BID oral, day 23): 60% | EAE clinical scoring, Mean (G5, 3 mg/kg BID oral, day 24): 0.80 | incidence of EAE (G5, 3 mg/kg BID oral, day 24): 50% | EAE clinical scoring, Mean (G5, 3 mg/kg BID oral, day 25): 0.80 | incidence of EAE (G5, 3 mg/kg BID oral, day 25): 50% | EAE clinical scoring, Mean (G5, 3 mg/kg BID oral, day 26): 0.80 | incidence of EAE (G5, 3 mg/kg BID oral, day 26): 50% | EAE clinical scoring, Mean (G5, 3 mg/kg BID oral, day 27): 0.60 | incidence of EAE (G5, 3 mg/kg BID oral, day 27): 30% | EAE clinical scoring, Mean (G6, 10 mg/kg BID oral, day 0): 0.00 | incidence of EAE (G6, 10 mg/kg BID oral, day 0): 0% | EAE clinical scoring, Mean (G6, 10 mg/kg BID oral, day 2): 0.00 | incidence of EAE (G6, 10 mg/kg BID oral, day 2): 0% | EAE clinical scoring, Mean (G6, 10 mg/kg BID oral, day 4): 0.00 | incidence of EAE (G6, 10 mg/kg BID oral, day 4): 0% | EAE clinical scoring, Mean (G6, 10 mg/kg BID oral, day 7): 0.00 | incidence of EAE (G6, 10 mg/kg BID oral, day 7): 0% | EAE clinical scoring, Mean (G6, 10 mg/kg BID oral, day 9): 0.00 | incidence of EAE (G6, 10 mg/kg BID oral, day 9): 0% | EAE clinical scoring, Mean (G6, 10 mg/kg BID oral, day 11): 0.00 | incidence of EAE (G6, 10 mg/kg BID oral, day 11): 0% | EAE clinical scoring, Mean (G6, 10 mg/kg BID oral, day 12): 0.00 | incidence of EAE (G6, 10 mg/kg BID oral, day 12): 0% | EAE clinical scoring, Mean (G6, 10 mg/kg BID oral, day 13): 0.20 | incidence of EAE (G6, 10 mg/kg BID oral, day 13): 20% | EAE clinical scoring, Mean (G6, 10 mg/kg BID oral, day 14): 0.40 | incidence of EAE (G6, 10 mg/kg BID oral, day 14): 40% | EAE clinical scoring, Mean (G6, 10 mg/kg BID oral, day 15): 0.50 | incidence of EAE (G6, 10 mg/kg BID oral, day 15): 50% | EAE clinical scoring, Mean (G6, 10 mg/kg BID oral, day 16): 0.60 | incidence of EAE (G6, 10 mg/kg BID oral, day 16): 50% | EAE clinical scoring, Mean (G6, 10 mg/kg BID oral, day 17): 0.50 | incidence of EAE (G6, 10 mg/kg BID oral, day 17): 40% | EAE clinical scoring, Mean (G6, 10 mg/kg BID oral, day 18): 0.60 | incidence of EAE (G6, 10 mg/kg BID oral, day 18): 40% | EAE clinical scoring, Mean (G6, 10 mg/kg BID oral, day 19): 0.40 | incidence of EAE (G6, 10 mg/kg BID oral, day 19): 20% | EAE clinical scoring, Mean (G6, 10 mg/kg BID oral, day 20): 0.30 | incidence of EAE (G6, 10 mg/kg BID oral, day 20): 10% | EAE clinical scoring, Mean (G6, 10 mg/kg BID oral, day 21): 0.30 | incidence of EAE (G6, 10 mg/kg BID oral, day 21): 20% | EAE clinical scoring, Mean (G6, 10 mg/kg BID oral, day 22): 0.30 | incidence of EAE (G6, 10 mg/kg BID oral, day 22): 20% | EAE clinical scoring, Mean (G6, 10 mg/kg BID oral, day 23): 0.40 | incidence of EAE (G6, 10 mg/kg BID oral, day 23): 30% | EAE clinical scoring, Mean (G6, 10 mg/kg BID oral, day 24): 0.40 | incidence of EAE (G6, 10 mg/kg BID oral, day 24): 30% | EAE clinical scoring, Mean (G6, 10 mg/kg BID oral, day 25): 0.40 | incidence of EAE (G6, 10 mg/kg BID oral, day 25): 30% | EAE clinical scoring, Mean (G6, 10 mg/kg BID oral, day 26): 0.40 | incidence of EAE (G6, 10 mg/kg BID oral, day 26): 30%

Reference: patent US20240238299A1, “USE OF PYRROLOPYRIMIDINE COMPOUND” (GUANGZHOU JOYO PHARMATECH CO., LTD, priority 2021, published 2024)
